Assays:
PKC (from rats' brains) = details: cited from earlier work
PKC = PKC inhibition (partially purified PKC, Ca2+, phosphatidylserine and 1-oleoyl-2-acetylglycerol, histone III-S substrate); assay type: biochemical, rat
Source text: (§1) The PKC was partially purified from rat brain and assayed in the presence of its activators: Ca^2+, phosphatidylserine and 1-oleoyl-2-acetylglycerol. Histone III-S was used as phosphate acceptor. The MLCK was native enzyme from chicken gizzard fully activated by calmodulin. Kemptamide was used as phosphate acceptor.

MLCK = molecular target: T1, MLCK (Gallus gallus, UniProt P11799); test: MLCK inhibition (native enzyme from chicken gizzard, calmodulin activated, Kemptamide substrate); assay type: biochemical
T1 construct: Kemptamide as substrate
Source text: as §1

SHR and DOC-rats = details: cited from earlier work

Row | Compound | PKC inhibitory potency (in words) (PKC (from rats' brains)) | potency at PKC (in words) (PKC) | potency at MLCK (in words) (MLCK) | lowering of blood pressure (in words) (SHR and DOC-rats)
1 | CC12OC(CC1(O)C(=O)O)n1c3ccccc3c3c4c(c5c6ccccc6n2c5c31)CNC4=O (centres unmarked) [Example K252b] | inhibitory to PKC (from rats' brains) with good potency, in the nanomolar range | – | – | –
2 | COC(=O)[C@@]1(O)C[C@H]2O[C@]1(C)n1c3ccccc3c3c4c(c5c6ccccc6n2c5c31)C(=O)NC4 [Example K-252a] | inhibitory to PKC (from rats' brains) with good potency, in the nanomolar range | nanomolar potencies | nanomolar potencies | lowers blood pressure in SHR and DOC-rats

— patent US5618809A, “Indolocarbazoles from saccharothrix aerocolonigenes copiosa subsp. nov SCC 1951 ATCC 53856” (Schering Corporation, priority 1995, dated 1997)
